# Assays:
# [1] = biological target: T1, MELK (Homo sapiens, UniProt Q14680); test: kinome scan; type: binding; conditions: 10 µM
# T1 construct: purchased DiscoverX (KINOMEscan)
# [2] = test system: HeLa cells; test: LC3B positive autophagosomes, immunofluorescent staining; type: cell-based; conditions: 10 µM, three days
# Experimental: Cells were fixed with PBS containing 0.5% of para-formaldehyde for 15 min at room temperature. After three washing steps in PBS, cells were permeabilized with PBS containing 0.3% of Triton X-100 (Sigma) for 1 h at room temperature. After washing with PBS three times, cells were incubated overnight with the anti-LC3B antibody in PBS with 1% bovine serum albumin (Sigma) at 4°C. After three washing steps in PBS, cells were incubated with the fluorescent secondary antibody for 90 min at 4°C in PBS with 1% bovine serum albumin. They were then incubated with […] DAPI (Thermofisher) in PBS for 15 min. After washing with PBS, cells were rinsed once in water prior to mounting in the FluorSave reagent (Millipore).
# Depending of these transitory environmental conditions, autophagy can either promote survival or apoptosis ([Degtyarev et al., 2008]). PIK/AKT pathway inhibition has been reported to increase cell autophagy ([Palmieri et al., 2017]). More specifically, PIP4K2C has been described as a down-regulator of autophagy ([Sharma et al., 2019]).
# [3] = biological target: T2, PRKCD (Homo sapiens, UniProt Q05655); test: kinome scan; type: binding; conditions: 10 µM
# T2 construct: purchased DiscoverX (KINOMEscan)
# [4] = biological target: T3, LRRK2 (Homo sapiens, UniProt Q5S007); test: kinome scan; type: binding; conditions: 10 µM
# T3 construct: purchased DiscoverX (KINOMEscan)
# [5] = biological target: T4, BMPR1B (Homo sapiens, UniProt O00238); test: kinome scan; type: binding; conditions: 10 µM
# T4 construct: purchased DiscoverX (KINOMEscan)
# [6] = biological target: T5, ABL1(E255K)-phosphorylated (Homo sapiens, UniProt P00519, E255K); test: kinome scan; type: binding; conditions: 10 µM
# T5 construct: purchased DiscoverX (KINOMEscan)
# [7] = biological target: T6, WEE2 (Homo sapiens, UniProt P0C1S8); test: kinome scan; type: binding; conditions: 10 µM
# T6 construct: purchased DiscoverX (KINOMEscan)
# [8] = biological target: T7, PDGFRA (Homo sapiens, UniProt P16234); test: kinome scan; type: binding; conditions: 10 µM
# T7 construct: purchased DiscoverX (KINOMEscan)
# [9] = biological target: T8, ABL1(F317I)-phosphorylated (Homo sapiens, UniProt P00519, F317I); test: kinome scan; type: binding; conditions: 10 µM
# T8 construct: purchased DiscoverX (KINOMEscan)
# [10] = test system: CGR8EF1αS,RLuc-Tα1,FLuc cells; test: cell viability by propidium iodide; type: cell-based, mouse; conditions: up to 10 µM, 72 h
# Experimental: The CGR8 mouse PSC were cultured as described ([Suter et al., 2009]). For neural induction, CGR8 cells were plated in 96-well plates at a density of 10,000 cells/cm^2 on gelatine-coated cell culture plates, in differentiation medium [BHK-21 medium supplemented with 20% foetal calf serum (Thermofisher), L-glutamine 2 mM (Thermofisher), non-essential amino acids (1X, Thermofisher), sodium pyruvate 1 mM (Thermofisher), penicillin/streptomycin 50 U/ml (Thermofisher)]. CGR8EF1αS,RLuc-Tα1,FLuc cells were described in ([Suter et al., 2009]) and were cultured as described above. Luminescence assays were directly performed in 96-well plates with the Dual Luciferase Reporter Assay System (Promega) according to the manufacturer’s instructions. Luminescence was measured with the SpectraMax L Microplate luminometer (Molecular Devices). Cell viability in the wells was measured by the addition of propidium iodide 1 µg/ml in 100 µL of PBS and fluorescence was assessed in each well using a FluoStar Optima reader (Pharmaceutical Technology Group at the University of Geneva).
# After two days, cells were lysed for the quantification of intracellular ATP. […] After three days, cells were lysed for the quantification of F-luminescence (FLuc) and R-luminescence (RLuc) in the presence of the respective substrates.
# [11] = biological target: T9, PIK3CA (Homo sapiens, UniProt P42336); test: kinome scan; type: binding; conditions: 10 µM
# T9 construct: purchased DiscoverX (KINOMEscan)
# [12] = biological target: T10, CASK (Homo sapiens, UniProt O14936); test: kinome scan; type: binding; conditions: 10 µM
# T10 construct: purchased DiscoverX (KINOMEscan)
# [13] = biological target: T11, JAK1(JH2domain-pseudokinase) (Homo sapiens, UniProt P23458); test: kinome scan; type: binding; conditions: 10 µM
# T11 construct: JAK1(JH2domain-pseudokinase); purchased DiscoverX (KINOMEscan)
# [14] = biological target: T12, PCTK1 (Homo sapiens, UniProt Q00536); test: kinome scan; type: binding; conditions: 10 µM
# T12 construct: purchased DiscoverX (KINOMEscan)
# [15] = biological target: T13, LIMK1 (Homo sapiens, UniProt P53667); test: kinome scan; type: binding; conditions: 10 µM
# T13 construct: purchased DiscoverX (KINOMEscan)
# [16] = biological target: T14, NEK3 (Homo sapiens, UniProt P51956); test: kinome scan; type: binding; conditions: 10 µM
# T14 construct: purchased DiscoverX (KINOMEscan)
# [17] = biological target: T15, BMX (Homo sapiens, UniProt P51813); test: kinome scan; type: binding; conditions: 10 µM
# T15 construct: purchased DiscoverX (KINOMEscan)
# [18] = biological target: T16, JNK3 (Homo sapiens, UniProt P53779); test: kinome scan; type: binding; conditions: 10 µM
# T16 construct: purchased DiscoverX (KINOMEscan)
# [19] = biological target: T17, EGFR (Homo sapiens, UniProt P00533); test: kinome scan; type: binding; conditions: 10 µM
# T17 construct: purchased DiscoverX (KINOMEscan)
# [20] = biological target: T18, HIPK1 (Homo sapiens, UniProt Q86Z02); test: kinome scan; type: binding; conditions: 10 µM
# T18 construct: purchased DiscoverX (KINOMEscan)
# [21] = biological target: T19, PIK3C2G (Homo sapiens, UniProt O75747); test: kinome scan; type: binding
# T19 construct: purchased DiscoverX (KINOMEscan)
# [22] = biological target: T20, MYO3A (Homo sapiens, UniProt Q8NEV4); test: kinome scan; type: binding; conditions: 10 µM
# T20 construct: purchased DiscoverX (KINOMEscan)
# [23] = biological target: T21, ACVR1B (Homo sapiens, UniProt P36896); test: kinome scan; type: binding; conditions: 10 µM
# T21 construct: purchased DiscoverX (KINOMEscan)
# [24] = biological target: T22, PIP5K2B (Homo sapiens, UniProt P78356); test: kinome scan; type: binding; conditions: 10 µM
# T22 construct: purchased DiscoverX (KINOMEscan)
# [25] = biological target: T23, RET(M918T) (Homo sapiens, UniProt P07949, M918T); test: kinome scan; type: binding; conditions: 10 µM
# T23 construct: purchased DiscoverX (KINOMEscan)
# [26] = biological target: T24, TGFBR2 (Homo sapiens, UniProt P37173); test: kinome scan; type: binding; conditions: 10 µM
# T24 construct: purchased DiscoverX (KINOMEscan)
# [27] = biological target: T25, FYN (Homo sapiens, UniProt P06241); test: kinome scan; type: binding; conditions: 10 µM
# T25 construct: purchased DiscoverX (KINOMEscan)
# [28] = biological target: T26, ERK8 (Homo sapiens, UniProt Q8TD08); test: kinome scan; type: binding; conditions: 10 µM
# T26 construct: purchased DiscoverX (KINOMEscan)
# [29] = biological target: T27, RAF1 (Homo sapiens, UniProt P04049); test: kinome scan; type: binding; conditions: 10 µM
# T27 construct: purchased DiscoverX (KINOMEscan)
# [30] = biological target: T28, CDK5 (Homo sapiens, UniProt Q00535); test: kinome scan; type: binding; conditions: 10 µM
# T28 construct: purchased DiscoverX (KINOMEscan)
# T19 sequence (O75747 whole entry): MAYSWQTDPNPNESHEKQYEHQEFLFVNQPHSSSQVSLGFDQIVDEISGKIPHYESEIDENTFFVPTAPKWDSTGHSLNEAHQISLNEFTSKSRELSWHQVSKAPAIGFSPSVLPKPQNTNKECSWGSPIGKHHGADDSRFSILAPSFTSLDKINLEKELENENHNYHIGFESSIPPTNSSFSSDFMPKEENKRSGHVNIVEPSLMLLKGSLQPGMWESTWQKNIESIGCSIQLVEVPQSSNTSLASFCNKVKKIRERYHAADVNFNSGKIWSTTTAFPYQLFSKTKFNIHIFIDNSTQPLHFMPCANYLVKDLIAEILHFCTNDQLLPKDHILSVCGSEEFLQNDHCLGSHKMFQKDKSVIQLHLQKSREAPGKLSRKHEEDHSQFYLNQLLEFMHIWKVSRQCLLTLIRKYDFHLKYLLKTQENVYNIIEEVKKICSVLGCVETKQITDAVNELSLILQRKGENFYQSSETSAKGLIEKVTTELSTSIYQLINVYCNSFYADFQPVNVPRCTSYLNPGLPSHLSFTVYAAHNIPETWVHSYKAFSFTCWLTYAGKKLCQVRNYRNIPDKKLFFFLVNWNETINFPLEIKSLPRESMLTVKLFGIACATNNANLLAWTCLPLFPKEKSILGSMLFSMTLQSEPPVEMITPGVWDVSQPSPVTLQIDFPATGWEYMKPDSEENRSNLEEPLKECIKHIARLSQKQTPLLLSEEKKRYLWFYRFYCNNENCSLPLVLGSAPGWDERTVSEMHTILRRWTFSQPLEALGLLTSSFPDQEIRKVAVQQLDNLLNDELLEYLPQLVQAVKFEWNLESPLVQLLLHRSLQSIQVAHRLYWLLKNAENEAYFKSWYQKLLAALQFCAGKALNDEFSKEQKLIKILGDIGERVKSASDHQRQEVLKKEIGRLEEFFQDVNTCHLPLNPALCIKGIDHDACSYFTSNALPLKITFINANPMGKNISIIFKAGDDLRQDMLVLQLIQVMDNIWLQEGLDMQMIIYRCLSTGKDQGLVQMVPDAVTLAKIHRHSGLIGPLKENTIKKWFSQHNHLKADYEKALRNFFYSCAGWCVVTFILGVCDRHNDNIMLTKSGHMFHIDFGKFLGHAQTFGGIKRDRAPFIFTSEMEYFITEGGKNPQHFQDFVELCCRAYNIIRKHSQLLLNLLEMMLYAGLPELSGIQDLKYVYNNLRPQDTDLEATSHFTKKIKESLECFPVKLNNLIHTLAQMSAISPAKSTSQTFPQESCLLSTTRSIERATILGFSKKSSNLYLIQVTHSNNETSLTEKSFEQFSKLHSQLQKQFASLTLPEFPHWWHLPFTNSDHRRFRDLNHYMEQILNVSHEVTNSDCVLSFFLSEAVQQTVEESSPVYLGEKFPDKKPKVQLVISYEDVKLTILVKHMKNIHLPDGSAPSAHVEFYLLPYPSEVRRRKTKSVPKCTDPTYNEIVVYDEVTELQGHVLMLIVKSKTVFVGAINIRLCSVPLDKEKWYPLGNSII
# T13 sequence (P53667 whole entry): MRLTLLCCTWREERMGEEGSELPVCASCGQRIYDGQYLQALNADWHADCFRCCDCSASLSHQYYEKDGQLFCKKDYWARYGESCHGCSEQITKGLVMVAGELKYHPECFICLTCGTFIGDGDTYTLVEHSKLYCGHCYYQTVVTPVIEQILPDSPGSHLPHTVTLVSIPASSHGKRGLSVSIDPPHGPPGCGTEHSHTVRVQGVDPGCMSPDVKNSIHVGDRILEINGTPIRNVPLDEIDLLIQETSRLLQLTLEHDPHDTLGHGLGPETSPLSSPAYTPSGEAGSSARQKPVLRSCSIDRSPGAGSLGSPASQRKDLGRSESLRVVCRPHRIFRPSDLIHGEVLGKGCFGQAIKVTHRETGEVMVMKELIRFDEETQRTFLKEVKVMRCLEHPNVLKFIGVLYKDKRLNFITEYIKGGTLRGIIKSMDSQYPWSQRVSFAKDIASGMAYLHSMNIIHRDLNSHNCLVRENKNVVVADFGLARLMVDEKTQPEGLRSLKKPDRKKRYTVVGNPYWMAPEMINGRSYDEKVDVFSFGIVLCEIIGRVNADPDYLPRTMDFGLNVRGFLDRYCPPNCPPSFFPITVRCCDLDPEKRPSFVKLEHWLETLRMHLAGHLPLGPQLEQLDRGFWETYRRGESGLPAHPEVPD
# T8 sequence (P00519 whole entry F317I): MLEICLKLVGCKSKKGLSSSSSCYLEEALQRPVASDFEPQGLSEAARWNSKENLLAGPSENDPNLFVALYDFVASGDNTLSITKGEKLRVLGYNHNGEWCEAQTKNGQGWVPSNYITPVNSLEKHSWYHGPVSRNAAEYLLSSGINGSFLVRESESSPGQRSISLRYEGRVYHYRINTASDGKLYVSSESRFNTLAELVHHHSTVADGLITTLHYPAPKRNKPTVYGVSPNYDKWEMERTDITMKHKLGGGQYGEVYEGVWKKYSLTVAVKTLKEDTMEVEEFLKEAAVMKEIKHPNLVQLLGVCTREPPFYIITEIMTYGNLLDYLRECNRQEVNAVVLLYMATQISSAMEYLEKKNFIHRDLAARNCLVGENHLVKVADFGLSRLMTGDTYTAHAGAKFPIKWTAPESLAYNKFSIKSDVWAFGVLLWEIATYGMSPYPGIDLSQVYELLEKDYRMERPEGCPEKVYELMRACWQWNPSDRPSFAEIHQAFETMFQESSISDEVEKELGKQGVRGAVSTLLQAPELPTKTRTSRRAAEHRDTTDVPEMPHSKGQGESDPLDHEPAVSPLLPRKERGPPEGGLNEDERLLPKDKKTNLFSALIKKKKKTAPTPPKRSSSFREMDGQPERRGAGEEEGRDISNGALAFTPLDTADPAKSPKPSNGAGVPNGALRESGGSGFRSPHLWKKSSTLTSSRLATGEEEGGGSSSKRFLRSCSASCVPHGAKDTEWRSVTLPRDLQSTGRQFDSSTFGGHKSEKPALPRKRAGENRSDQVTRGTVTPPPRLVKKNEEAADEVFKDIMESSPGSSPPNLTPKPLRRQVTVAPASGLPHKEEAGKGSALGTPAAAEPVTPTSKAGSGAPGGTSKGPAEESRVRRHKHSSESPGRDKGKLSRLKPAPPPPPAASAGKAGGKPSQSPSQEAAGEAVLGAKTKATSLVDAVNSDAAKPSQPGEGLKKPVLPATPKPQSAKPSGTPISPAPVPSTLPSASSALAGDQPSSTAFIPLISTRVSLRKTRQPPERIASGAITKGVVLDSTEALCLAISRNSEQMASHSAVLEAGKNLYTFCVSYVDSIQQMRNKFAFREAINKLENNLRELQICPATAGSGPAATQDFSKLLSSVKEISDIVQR
# T25 sequence (P06241 whole entry): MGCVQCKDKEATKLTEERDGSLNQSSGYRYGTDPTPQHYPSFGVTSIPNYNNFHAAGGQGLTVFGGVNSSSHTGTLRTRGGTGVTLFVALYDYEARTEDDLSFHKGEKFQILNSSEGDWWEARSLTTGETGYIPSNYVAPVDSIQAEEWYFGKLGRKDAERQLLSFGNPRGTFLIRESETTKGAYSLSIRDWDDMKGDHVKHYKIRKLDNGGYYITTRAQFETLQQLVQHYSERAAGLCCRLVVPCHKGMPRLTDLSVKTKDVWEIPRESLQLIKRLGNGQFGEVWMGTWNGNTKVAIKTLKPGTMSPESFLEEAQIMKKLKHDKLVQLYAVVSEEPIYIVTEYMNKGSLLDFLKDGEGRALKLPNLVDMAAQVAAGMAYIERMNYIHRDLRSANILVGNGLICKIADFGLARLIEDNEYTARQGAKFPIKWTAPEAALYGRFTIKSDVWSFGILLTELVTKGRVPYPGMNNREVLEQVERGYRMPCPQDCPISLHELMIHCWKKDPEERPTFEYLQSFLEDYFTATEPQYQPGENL
# T1 sequence (Q14680 whole entry): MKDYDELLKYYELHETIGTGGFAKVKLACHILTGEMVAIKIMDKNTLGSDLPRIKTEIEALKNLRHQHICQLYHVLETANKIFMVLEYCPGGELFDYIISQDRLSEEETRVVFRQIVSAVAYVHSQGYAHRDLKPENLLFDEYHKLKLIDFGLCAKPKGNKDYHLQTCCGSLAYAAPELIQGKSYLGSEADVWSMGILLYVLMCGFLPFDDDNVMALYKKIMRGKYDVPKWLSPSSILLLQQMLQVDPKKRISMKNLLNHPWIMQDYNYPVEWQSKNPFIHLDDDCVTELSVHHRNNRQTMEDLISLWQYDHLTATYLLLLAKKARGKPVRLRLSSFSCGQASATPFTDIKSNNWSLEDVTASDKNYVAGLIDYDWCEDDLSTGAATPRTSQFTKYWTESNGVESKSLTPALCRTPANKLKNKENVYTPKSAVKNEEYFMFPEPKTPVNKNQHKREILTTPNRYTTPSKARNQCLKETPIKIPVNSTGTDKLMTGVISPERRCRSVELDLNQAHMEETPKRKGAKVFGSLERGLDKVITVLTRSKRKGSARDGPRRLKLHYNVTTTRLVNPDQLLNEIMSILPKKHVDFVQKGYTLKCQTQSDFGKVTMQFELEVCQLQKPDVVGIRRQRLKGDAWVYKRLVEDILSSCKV
# T12 sequence (Q00536 whole entry): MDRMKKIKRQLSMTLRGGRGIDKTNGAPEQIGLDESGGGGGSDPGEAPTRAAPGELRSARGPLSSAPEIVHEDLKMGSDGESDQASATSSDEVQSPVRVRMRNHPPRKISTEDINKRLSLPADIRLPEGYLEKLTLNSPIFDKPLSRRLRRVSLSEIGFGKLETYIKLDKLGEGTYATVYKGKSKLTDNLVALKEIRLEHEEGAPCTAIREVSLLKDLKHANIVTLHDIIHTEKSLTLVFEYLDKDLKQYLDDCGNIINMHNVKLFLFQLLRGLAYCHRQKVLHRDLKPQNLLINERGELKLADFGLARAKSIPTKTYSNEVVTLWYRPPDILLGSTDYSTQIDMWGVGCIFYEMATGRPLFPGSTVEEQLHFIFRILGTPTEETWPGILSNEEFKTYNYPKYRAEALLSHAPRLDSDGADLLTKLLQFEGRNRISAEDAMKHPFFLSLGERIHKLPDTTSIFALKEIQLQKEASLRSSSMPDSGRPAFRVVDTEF
# T5 sequence (P00519 whole entry E255K): as the sequence (P00519 whole entry F317I) above, with E255K, I317F counted along it
smiles,measurement,setting,value
"Nc1ccc(N=Nc2ccccc2)c(N)n1 [phenazopyridine, 2,6-diamino-3-(phenylazo)pyridine]",kinase inhibition,[1],79
same,number of LC3B-positive autophagosomes,[2],increased
same,kinase inhibition,[3],100
same,kinase inhibition,[4],100
same,kinase inhibition,[5],95
same,kinase inhibition,[6],62
same,kinase inhibition,[7],100
same,kinase inhibition,[8],38
same,kinase inhibition,[9],78
same,toxicity (signal in the presence of propidium iodide),[10],without any toxicity
same,kinase inhibition,[11],84
same,kinase inhibition,[12],99
same,kinase inhibition,[13],32
same,kinase inhibition,[14],98
same,kinase inhibition,[15],100
same,kinase inhibition,[16],100
same,kinase inhibition,[17],100
same,kinase inhibition,[18],91
same,remaining binding (% of control),[19],93
same,kinase inhibition,[20],58
same,remaining activity,[21]; 10 µM,24
same,remaining binding at 10 µM,[21]; read-out: % Of control,24%
same,kinase inhibition,[22],100
same,kinase inhibition,[23],86
same,kinase inhibition,[24],97
same,kinase inhibition,[25],100
same,kinase inhibition,[26],66
same,remaining binding (% of control),[27],100
same,kinase inhibition,[28],100
same,kinase inhibition,[29],100
same,kinase inhibition,[30],90
